From patent US8309557B2, “Pyrimidin-4-ylpropanedinitrile derivatives, processes for their preparation and their use as herbicides and plant growth regulators” (Bayer Intellectual Property GmbH, priority 2009, dated 2012)

Legend:
Format in all cases: in vivo
[1] = test system: Matricaria inodora; experiment: Herbicidal effect post-emergence, MATIN
Description: (§1) Seeds of mono- and dicotyledonous weed plants and crop plants are planted in wood-fiber pots in sandy loam, covered with earth and grown in a greenhouse under good growth conditions. 2 to 3 weeks after sowing, the test plants are treated in the single-leaf stage. The compounds according to the invention, formulated in the form of wettable powders (WP) or as emulsion concentrates (EC), are then sprayed onto the green plant parts as aqueous suspension or emulsion using an application rate of 600 to 800 l of water/ha (converted) with the addition of 0.2% by weight of wetting agent. After the test plants had been in the greenhouse for ca. 3 weeks under optimum growth conditions, the effect of the preparations is scored visually in comparison with untreated controls (herbicidal effect in percent (%): 100% effect=plants have died off, 0% effect=as control plants).

[2] = test system: Veronica persica; experiment: Herbicidal effect post-emergence, VERPE
Description: as §1

[3] = test system: Polygonum (Fallopia) convolvulus; experiment: Herbicidal effect post-emergence, POLCO
Description: as §1

[4] = test system: Abutilon theophrasti; experiment: Herbicidal effect post-emergence, ABUTH
Description: as §1

[5] = test system: Amaranthus retroflexus; experiment: Herbicidal effect post-emergence, AMARE
Description: as §1

[6] = test system: Setaria viridis; experiment: Herbicidal effect post-emergence, SETVI
Description: as §1

[7] = test system: Viola tricolor; experiment: Herbicidal effect post-emergence, VIOTR
Description: as §1

[8] = test system: Echinochloa crus-galli; experiment: Herbicidal effect post-emergence, ECHCG
Description: as §1

[9] = test system: Stellaria media; experiment: Herbicidal effect post-emergence, STEME
Description: as §1

[10] = test system: Amaranthus retroflexus; experiment: Herbicidal effect pre-emergence, AMARE; settings: 320 g/hectare, visual grading after 3 weeks vs untreated controls
Text: (§2) Seeds of mono- and dicotyledonous weed plants and crop plants are planted in wood-fiber pots in sandy loam and covered with earth. The compounds according to the invention, formulated in the form of wettable powders (WP) or as emulsion concentrates (EC), are then applied to the surface of the covering earth as aqueous suspension or emulsion at an application rate corresponding to 320 g/hectare at an application rate of 600 to 800 l of water/ha (converted) with the addition of 0.2% wetting agent.
(§3) Following treatment, the pots are placed in a greenhouse and kept under good growth conditions for the test plants. The visual grading of the damage to the test plants is carried out after a test time of 3 weeks in comparison to untreated controls (herbicidal effect in percent (%): 100% effect=plants have died off, 0% effect=as control plants).

[11] = test system: Veronica persica; experiment: Herbicidal effect pre-emergence, VERPE; settings: 320 g/hectare, visual grading after 3 weeks vs untreated controls
Text: as §2, §3

[12] = test system: Viola tricolor; experiment: Herbicidal effect pre-emergence, VIOTR; settings: 320 g/hectare, visual grading after 3 weeks vs untreated controls
Text: as §2, §3

[13] = 0.32 kg and less of active substance per hectare, visual score after ca. 3 weeks vs untreated controls

Row | Structure (SMILES) | Effect in % in respect of stated plant, MATIN [1] [%] | Effect in % in respect of stated plant, VERPE [2] [%] | Effect in % in respect of stated plant, POLCO [3] [%] | Effect in % in respect of stated plant, ABUTH [4] [%] | Effect in % in respect of stated plant, AMARE [5] [%] | Effect in % in respect of stated plant, SETVI [6] [%] | Effect in % in respect of stated plant, VIOTR [7] [%] | Effect in % in respect of stated plant, ECHCG [8] [%] | Effect in % in respect of stated plant, STEME [9] [%] | Effect in % in respect of stated plant, AMARE [10] [%] | Effect in % in respect of stated plant, VERPE [11] [%] | Effect in % in respect of stated plant, VIOTR [12] [%] | herbicidal effect [1, 13] | herbicidal effect [3, 13] | herbicidal effect [2, 13]
1 | N#CC(C#N)c1nc(-c2ccc(Cl)c(C(F)(F)F)c2)nc(N)c1Cl [compound 87] | 90 | 90 |  |  |  |  |  |  |  |  |  |  |  |  | 
2 | CN.N#CC(C#N)c1nc(-c2ccc(Cl)cc2)nc(N)c1Cl [Compound 309] | 85 | 90 | 90 | 90 | 95 | 80 | 85 | 90 | 80 | 85 | 100 | 100 |  |  | 
3 | Cc1cc(-c2nc(N)c(Cl)c(C(C#N)C#N)n2)ccc1F.N [Compound 389] |  | 80 | 80 | 80 | 80 |  |  |  |  |  |  |  |  |  | 
4 | N.N#CC(C#N)c1nc(-c2ccc(Cl)cc2Cl)nc(N)c1Cl [Compound 375] | 90 | 90 | 100 | 90 | 100 |  |  |  |  | 100 | 100 | 80 |  |  | 
5 | N#CC(C#N)c1nc(C2CCCCC2)nc(N)c1Cl [compound 240] | 80 | 90 |  | 80 |  |  |  |  |  |  |  |  |  |  | 
6 | N#CC(C#N)c1nc(-c2cccc(Cl)c2Cl)nc(N)c1Cl [compound 207] | 80 | 90 | 100 | 80 | 100 |  |  |  | 80 |  |  |  |  |  | 
7 | N.N#CC(C#N)c1nc(-c2cccc(Cl)c2Cl)nc(N)c1Cl [Compound 390] |  | 80 | 80 |  | 90 |  |  |  |  |  |  |  |  |  | 
8 | Cc1ccc(-c2nc(N)c(Cl)c(C(C#N)C#N)n2)c(F)c1.N [Compound 391] |  |  | 80 |  |  |  |  |  |  |  |  |  |  |  | 
9 | N#CC(C#N)c1nc(-c2ccc(Cl)cc2)nc(N)c1Cl [Ex. No. 29, [6-Amino-5-chloro-2-(4-chlorophenyl)pyrimidin-4-yl]propanedinitrile] |  | 90 |  | 80 |  |  | 80 |  |  |  | 100 | 80 |  |  | 
10 | N.N#CC(C#N)c1nc(-c2ccc(Cl)cc2)nc(N)c1Br [Compound 313] | 90 | 100 |  | 80 | 100 |  | 80 |  | 90 |  |  |  |  |  | 
11 | N.N#CC(C#N)c1nc(-c2ccc(Br)cc2)nc(N)c1Cl [Compound 321] | 100 | 90 | 100 | 90 | 100 | 80 | 90 | 90 | 80 | 90 | 100 | 100 |  |  | 
12 | N#CC(C#N)c1nc(-c2ccccc2)nc(N)c1Cl [Ex. No. 1, [6-Amino-5-chloro-2-phenylpyrimidin-4-yl]propanedinitrile] |  |  |  |  |  |  |  |  |  |  |  |  | at least 80% | at least 80% | at least 80%
